From PMC2396520, “Antibody Complementarity-Determining Regions (CDRs) Can Display Differential Antimicrobial, Antiviral and Antitumor Activities” (PLoS ONE, 2008)
Where a SMILES comes first, the peptide text is derived from it.

Experiments:
Candida albicans UP10 = assay type: cell-based; settings: for Anti-Candida activity (%) at 100 µg/mL: CDR peptides, 100 µg/mL in distilled water, 37°C, 6 h, CFU after 48–72 h, triplicate, C. albicans UP10
Protocol: The alanine substituted derivatives (asd), defined according to the position held by the alanine-substituted aminoacid, were tested in the same biological assays to critically establish the functional relevance of each residue [5]. In vitro microbicidal activity of CDR peptides and selected asd against C. albicans UP 10 (clinical isolate from the fungi collection of the University of Parma) and C. albicans NCPF 3153 (National Collection of Pathogenic Fungi, Bristol, UK) were used for the in vitro experiments.
The microbicidal activity of synthetic CDRs against C. albicans strains was preliminarily evaluated by testing 100 µg/mL of each synthetic peptide by colony forming unit (CFU) assays as previously described [5]. Briefly, 10 µL of a distilled water suspension containing ∼5×10^4/mL germinating yeast cells were added to 90 µL of distilled water containing the synthetic peptide to be tested. Yeast suspensions were incubated at 37°C for 6 h. After incubation, the cell suspensions were plated on Sabouraud dextrose agar, incubated at 30°C and observed for CFU determination after 48–72 hours. Each assay was carried out in triplicate. […] EC50 was calculated by nonlinear regression analysis using Graph Pad Prism 4.01 software, San Diego, CA, USA.

SKmel-28 = assay type: cell-based, human
Protocol: (§1) Murine B16F10-Nex2 melanoma cells (cloned at the Experimental Oncology Unit, Federal University of São Paulo, UNIFESP), and human SKmel28 and SKmel25 human melanoma cell lines originally obtained from the Memorial Sloan Kettering Cancer Center, New York, were cultured at 37°C, under humid atmosphere and 5% CO2, in RPMI-1640 medium with 10 mM N-2-hydroxyethylpiperazine-N2 ethanesulphonic acid (HEPES), 24 mM sodium bicarbonate, 40 mg/L gentamycin, pH 7.2 and 10% FCS.
(§2) Synthetic CDRs, scrambled peptides (controls), and […] of mAb C7/pc42 H2, selected for the highest cytotoxic activity, were diluted from 1 mM to 0.05 mM in RPMI with 10% FCS and incubated with B16F10-Nex2, SKmel28 and SKmel25 cells (5×10^3 cells/well) in 100 µL per well for 12 h at 37°C. Each peptide was tested in triplicate. After 12 h, the cytotoxic activities of the peptides were determined by measuring cell viability by Trypan Blue exclusion.

SKmel-25 = assay type: cell-based, human
Protocol: as §1, §2

[1] = system: B16F10-Nex2 murine melanoma cells; assay type: cell-based; settings: 12 h
R5 HIV-1 = assay type: cell-based; settings: for % inhibitory activity (10 µg/ml): R5, 2 h; for % inhibitory activity (10 µg/ml), endogenous HIV-1 replication: ex vivo, day 10 of culture, p24, mean of 3 determinations
Protocol: (§3) Briefly, for endogenous HIV-1 replication assays peripheral blood mononuclear cells (PBMCs) from R5 HIV-1-infected patients characterized by high viral RNA titers in plasma and cell-associated viremia were cultured in 96-well plates at 1×10^6 cells/mL in RPMI 1640 medium with 10% fetal calf serum (FCS) and 20 U/mL of rIL-2. Exogenous rIL-2 was added every 3–4 days. Cultures were treated with synthetic mAb CDRs and mAb C7/pc42 H1 asd at 10 µg/mL during the time of culture. Virus production on days 5 and 10 was assayed in the supernatants using ultrasensitive Alliance® HIV-1 p24 ELISA kit (Perkin Elmer); p24 Ag in the supernatants of untreated cultures corresponded to 100% of viral production. For exogenous infection assays, PHA-stimulated PBMCs obtained from healthy individuals were infected with BaL (R5) or IIIB (X4) HIV-1 strain at a median tissue culture infective dose (TCID50) of 500 TCID50/ml. After 2 h of adsorption, the cells were washed, suspended at 2×10^5 cells/ml in medium and cultured in 96-well cultures plates. At time zero of infection, synthetic peptides were added to the cultures at 10 µg/ml and were maintained throughout the experiment. All assays were performed in triplicate. Virus production was assayed 10 days after infection in the supernatants of HIV-1-infected PBMCs by p24 assay.

HIV-1 IIIB (X4) = assay: In vitro exogenous HIV-1 infection of PHA-stimulated PBMCs, IIIB strain (p24 assay); assay type: cell-based; settings: day 10, p24, mean of 3 determinations
Protocol: as §3

HIV-1 BaL (R5) = assay: In vitro exogenous HIV-1 infection of PHA-stimulated PBMCs, BaL strain (p24 assay); assay type: cell-based; settings: day 10, p24, mean of 3 determinations
Protocol: as §3

C. albicans NCPF 3153 = assay: Murine invasive candidiasis, i.p. peptide treatment; assay type: in vivo, BALB/c mice; settings: day 5 post-infection; 200 µg peptide i.p. x3; saline 160.3±46.6
Protocol: Animal experiments were approved by the Institutional Review Board of the School of Medicine and Odontology at the University of the Basque Country, Spain. Female BALB/c mice, 8-weeks old (11–12 animals/group), were infected intravenously with 5×10^5 C. albicans NCPF 3153 yeast cells suspended in 0.1 mL saline. Mice were treated i.p. with 200 µg of mAb C7 L1 and mAb C7/pc42 H1 and H2 for 3 days starting on day 0, and 4 h after the fungal challenge, and at 24 and 48 h thereafter. Control mice were injected with saline (same treatment schedule as those treated with the CDRs). Protection was evaluated by monitoring animal survival for 20 days. The mean survival time and numbers of CFU of C. albicans in infected tissues were calculated as reported previously.
The Kaplan-Meier log rank test was applied to survival data. Data on CFU in infected tissues were analyzed by Student's t test. p values of 0.05 were considered significant.

HUVEC = assay: In vitro Matrigel angiogenesis assay; assay type: cell-based, human; settings: peptides at 1 mM, C7/pc42 H2 at 50 µM; 18 h, 37°C; triplicate wells
Protocol: Matrigel™ Matrix (B&D Biosciences, Bedford, MA, USA) was thawed on ice, added (10 µL/well) to coat 96-well plates, and allowed to polymerize for 1 h at 37°C. Human umbilical vein endothelial cells (HUVEC) (5×10^3cells/well) were added alone or mixed with mAb C7 CDR peptides in 100 µL of RPMI medium supplemented with 0.2% of FCS in each well. All peptides were used at 1 mM, with the exception of mAb C7/pc42 H2 that was used at 50 µM. The plates were incubated at 37°C for 18 h and images were captured at 8× magnification with a Sony Cyber-shot camera coupled to a light microscope. The number of pro-angiogenic structures (closed rings formed at a given time by endothelial cell sprouting) was counted from 3 different wells, and the average value determined in each system, [45]. The assay was repeated at least three times.

Row | Compound | % inhibitory activity (10 µg/ml), endogenous HIV-1 replication (R5 HIV-1; 10 µg/ml) [%] | Anti-Candida activity (%) at 100 µg/mL (Candida albicans UP10) [%] | % inhibitory activity (10 µg/ml), exogenous HIV-1 replication, IIIB (HIV-1 IIIB (X4)) [%] | % inhibitory activity (10 µg/ml), exogenous HIV-1 replication, BaL (HIV-1 BaL (R5)) [%] | further results
1 | CC[C@H](C)[C@H](NC(=O)[C@@H](N)Cc1ccc(O)cc1)C(=O)N[C@@H](CO)C(=O)N[C@@H](CS)C(=O)N[C@@H](Cc1ccc(O)cc1)C(=O)N[C@@H](CC(N)=O)C(=O)NCC(=O)N[C@@H](C)C(=O)N[C@H](C(=O)N[C@@H](CO)C(=O)N[C@@H](Cc1ccc(O)cc1)C(=O)N[C@@H](CC(N)=O)C(=O)N[C@@H](CCC(N)=O)C(=O)N[C@@H](CCCCN)C(=O)N[C@@H](Cc1ccccc1)C(=O)N[C@@H](CCCCN)C(=O)O)[C@@H](C)O [C7/pc42 H2] (H-YISCYNGATSYNQKFK-OH) | – | – | – | – | EC50 (Candida albicans UP10; UP10, 6 h): 4.19 µM; cytotoxicity to human melanoma cell line SKmel-28 (SKmel-28): equally cytotoxic; cytotoxicity to human melanoma cell line SKmel-25 (SKmel-25): equally cytotoxic; EC50 [1]: 53.5 µM
2 | C[C@H](NC(=O)[C@H](Cc1ccc(O)cc1)NC(=O)[C@H](Cc1ccc(O)cc1)NC(=O)CN)C(=O)N[C@@H](Cc1c[nH]cn1)C(=O)O [M4A] (H-GYYAH-OH; N-terminus and C-terminus assumed) | – | – | – | – | % inhibitory activity (10 µg/ml) (R5 HIV-1): 41%
3 | CSCC[C@H](NC(=O)[C@H](Cc1ccc(O)cc1)NC(=O)[C@H](C)NC(=O)CN)C(=O)N[C@@H](Cc1c[nH]cn1)C(=O)O [Y2A] (H-GAYMH-OH; N-terminus and C-terminus assumed) | – | – | – | – | % inhibitory activity (10 µg/ml) (R5 HIV-1): 61%
4 | CSCC[C@H](NC(=O)[C@H](C)NC(=O)[C@H](Cc1ccc(O)cc1)NC(=O)CN)C(=O)N[C@@H](Cc1c[nH]cn1)C(=O)O [Y3A] (H-GYAMH-OH; N-terminus and C-terminus assumed) | – | – | – | – | % inhibitory activity (10 µg/ml) (R5 HIV-1): 90%
5 | ARQGVRGGAMD [C7 H3, synthetic peptide identical to heavy chain CDR H3 of mouse mAb C7] | 0 | 55.5 | 75 | 0 | –
6 | DASNRAT [HuA L2, synthetic peptide identical to light chain CDR L2 of human IgM mAb HuA] | 32 | 0 | 0 | 0 | –
7 | GQTTVTKIDEDY [HuA H3, synthetic peptide identical to heavy chain CDR H3 of human IgM mAb HuA] | 36 | 19.2 | 0 | 0 | –
8 | GYYMH [C7/pc42 H1, synthetic peptide identical to heavy chain CDR H1 shared by mAb C7 and mAb pc42] | 58 | 69.2 | 0 | 24 | CFU counts in kidney tissue (C. albicans NCPF 3153): 119.6±35.5; inhibition of R5 HIV-1 replication in treated cultures (R5 HIV-1; ex vivo conditions, 10 µg/ml): > 50%
9 | PNPLKAM [pc42 H3, synthetic peptide identical to heavy chain CDR H3 of mouse mAb pc42] | 0 | 25.9 | 0 | 11 | –
10 | QHIRELTRSE [pc42 L3, synthetic peptide identical to light chain CDR L3 of mouse mAb pc42] | 0 | 83.9 | 0 | 0 | –
11 | SYTFH [HuA H1, synthetic peptide identical to heavy chain CDR H1 of human IgM mAb HuA] | 38 | 12.9 | 0 | 84 | –
12 | VLAYDGSYQHYADSVKG [HuA H2, synthetic peptide identical to heavy chain CDR H2 of human IgM mAb HuA] | 40 | 0 | 0 | 74 | –
13 | WASTRES [C7 L2, synthetic peptide identical to light chain CDR L2 of mouse mAb C7] | 38 | 49.8 | 4 | 59 | endothelial cell sprouting on Matrigel (HUVEC): inhibited endothelial cell sprouting
